Source: PubChem BioAssay AID1648 (Sanford-Burnham Center for Chemical Genomics, 2009)
Calls of active or inactive are those of the source. No rule for the calls is given here.

Biological target: Serine/threonine-protein kinase mTOR (Homo sapiens) (UniProt P42345)
Assay: binders of mTOR FRB domain, biophysical, NMR (AID 1648)
Details: NMR binding to FRB domain, chemical shift

Chain of Serine/threonine-protein kinase mTOR (Homo sapiens) (P42345 2015-2114): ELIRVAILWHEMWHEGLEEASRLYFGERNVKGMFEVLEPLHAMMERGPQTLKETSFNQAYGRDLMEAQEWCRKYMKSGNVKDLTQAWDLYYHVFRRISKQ

## O=C(O)CCn1c(=O)oc2ccccc21
  Kd: > 4 mM (inactive)

## C/C=C(\C)C(=O)O[C@@H]1c2c(ccc3ccc(=O)oc23)OC(C)(C)[C@@H]1OC(C)=O
  Kd: > 4 mM (inactive)

## Cn1cnc2c1c(=O)[nH]c(=O)n2C
  Kd: > 4 mM (inactive)

## Cc1cccc(CSc2nncc(=O)[nH]2)c1
  Kd: > 4 mM (inactive)

## O=C(O)c1ccc(NC(=O)c2cccs2)cc1
  Kd: > 4 mM (inactive)

## CC1=NN2C(=N)CC(=O)N=C2S1
  Kd: > 4 mM (inactive)

## O=c1/c(=C/c2ccccc2F)sc2ncnn12
  Kd: > 4 mM (inactive)

## CCOC(=O)C1C(=O)C2CCN1CC2 (stereo not drawn)
  Kd: > 4 mM (inactive)

## O=C1c2ccncc2C(=O)N1CO
  Kd: > 4 mM (inactive)

## COc1ccc2c(c1)OC1(O)COc3cc(OC)c(OC)cc3C1=C2 (stereo not drawn)
  Kd: > 4 mM (inactive)

## Nc1ccccc1OC(F)(F)F
  Kd: > 4 mM (inactive)

## COc1cccc(-c2nc3ccc(O)cc3c(=O)o2)c1
  Kd: > 4 mM (inactive)

## Cn1cnc2ccc([N+](=O)[O-])cc2c1=O
  Kd: > 4 mM (inactive)

## CCCSc1nnc2[nH]c(=O)cc(N)n12
  Kd: > 4 mM (inactive)

## CC12CC[C@H](CC1=O)C2(C)C
  Kd: > 4 mM (inactive)

## Cc1cc(N2C(=O)CCC2=O)n(-c2ccccc2)n1
  Kd: > 4 mM (inactive)

## CC(=O)N1CN(C(C)=O)CN(C(C)=O)C1
  Kd: > 4 mM (inactive)

## OC1COCc2nc3ccccc3n2C1 (stereo not drawn)
  Kd: > 4 mM (inactive)

## Oc1ccccc1N1CCOCC1
  Kd: > 4 mM (inactive)

## COc1ccc(-c2ccc(OC)cc2C(=O)O)cc1
  Kd: > 4 mM (inactive)

## COc1c2ccoc2cc2oc(C)cc(=O)c12
  Kd: > 4 mM (inactive)

## C[C@@H]1O[C@@H](O[C@H]2[C@H](Oc3cc(O)c4c(=O)cc(-c5ccc(O)cc5)oc4c3)O[C@H](CO)[C@@H](O)[C@@H]2O)[C@H](O)[C@H](O)[C@H]1O
  Kd: > 4 mM (inactive)

## NCc1cccc2c1OCCO2
  Kd: > 4 mM (inactive)

## Clc1ccccc1-c1nc(-c2cccnc2)no1
  Kd: > 4 mM (inactive)

## CN(C)C(=O)Oc1ccc(-c2nnco2)cc1
  Kd: > 4 mM (inactive)

## Nc1ccc2c(c1)COc1ccccc1O2
  Kd: > 4 mM (inactive)

## CC1(C)CC(=O)c2sc(N)nc2C1
  Kd: > 4 mM (inactive)

## O=C(/C(=N\O)n1cncn1)c1ccccc1Cl
  Kd: > 4 mM (inactive)

## CC(=O)c1csc(-c2cc(C)on2)n1
  Kd: > 4 mM (inactive)

## COc1ccccc1NC(=O)NC(N)=O
  Kd: > 4 mM (inactive)

## CCN1CCC(NC2CCCCNC2=O)CC1 (stereo not drawn)
  Kd: > 4 mM (inactive)

## CC(=O)OCC(OC(C)=O)C(OC(C)=O)C(OC(C)=O)C(OC(C)=O)C(COC(C)=O)OC(C)=O (stereo not drawn)
  Kd: > 4 mM (inactive)

## CN=C(C)c1c(O)n(C)c(=S)n(C)c1=O
  Kd: > 4 mM (inactive)

## O=c1c(Cl)c(NCCO)ncn1-c1ccccc1
  Kd: > 4 mM (inactive)

## Cc1ccc(-n2cnnn2)c2cccnc12
  Kd: > 4 mM (inactive)

## Cc1cc(C(=O)N2CCN(S(C)(=O)=O)CC2)cs1
  Kd: > 4 mM (inactive)

## C#CCCCCCCCCCCCC(O)CC(O)COC(C)=O (stereo not drawn)
  Kd: > 4 mM (inactive)

## O=C(O)CCC(=O)c1cccc2ccccc12
  Kd: > 4 mM (inactive)

## Cc1ccc(/C=C2/C(=O)N=C(N)N2C)s1
  Kd: > 4 mM (inactive)

## CSc1ccccc1NC(=O)c1ccco1
  Kd: > 4 mM (inactive)

## CC(CCC(=O)O)[C@H]1CCC2C3CC[C@@H]4C[C@H](O)CC[C@]4(C)C3CC[C@@]21C (stereo partly drawn)
  Kd: > 4 mM (inactive)

## CCOC(=O)Cc1cc(=O)n2[nH]c(C)cc2n1
  Kd: > 4 mM (inactive)

## Cc1ccsc1/C=c1\sc2ncnn2c1=O
  Kd: > 4 mM (inactive)

## NC(=O)c1ccc(NC(=O)c2cccnc2)cc1
  Kd: > 4 mM (inactive)

## NC(=O)CN1C(=O)c2cccc3cccc1c23
  Kd: > 4 mM (inactive)

## CN1CCN(C(=S)c2ccc(N(C)C)cc2)CC1
  Kd: > 4 mM (inactive)

## CN1CCn2c1nc(N1CCCCC1)nc2=O
  Kd: > 4 mM (inactive)

## OCc1ccc(N2CCOCC2)nc1
  Kd: > 4 mM (inactive)

## Cn1ncc(NC(=O)Nc2ccc(F)cc2F)c1C(N)=O
  Kd: > 4 mM (inactive)

## Cn1c(=O)[nH]c(=O)c2c1ncn2CCN1CCCCC1
  Kd: > 4 mM (inactive)

## COC(=O)c1noc(C)c1C(C)=O
  Kd: > 4 mM (inactive)

## COc1ccc(-c2cc(=O)c3ccccc3o2)cc1
  Kd: > 4 mM (inactive)

## O=C(Nc1c[nH]c(=O)[nH]c1=O)c1cccs1
  Kd: > 4 mM (inactive)

## O=C(Nc1ccon1)c1ccccc1Cl
  Kd: > 4 mM (inactive)

## O=c1c2ccccc2nc(-c2ccco2)n1-c1nccs1
  Kd: > 4 mM (inactive)

## CCCOn1nnnc1-c1ccccc1
  Kd: > 4 mM (inactive)

## CC(=O)O[C@H]1CC[C@]2(C)C3CC[C@@]4(C)C(CC5O[C@@]6(CCC(C)CO6)[C@@H](C)C54)C3CC[C@@H]2C1 (stereo partly drawn)
  Kd: > 4 mM (inactive)

## CC(=O)c1cc(-c2nc3ccccc3n2C)n(C)c1
  Kd: > 4 mM (inactive)

## COc1cc(OC)c2c(=O)c(OC)c(-c3ccc(OC)c(OC)c3)oc2c1
  Kd: > 4 mM (inactive)

## COc1cccc(-c2nn(-c3ccccc3)cc2CO)c1
  Kd: > 4 mM (inactive)

## CC1(C)C(=O)[C@@H]2C[C@@]3(O)C4=CC(=O)O[C@@H](c5ccoc5)[C@]4(C)CCC3C(C)(C2=O)[C@H]1CC(=O)O (stereo partly drawn)
  Kd: > 4 mM (inactive)

## COc1cc2ccc(=O)oc2c2ccoc12
  Kd: > 4 mM (inactive)

## COc1ccc2c3c1O[C@H]1C[C@@H](O)C=C[C@@]31CCN(C)C2
  Kd: > 4 mM (inactive)

## Cc1nc(NCc2ccco2)nc2c1C(=O)CC(C)C2 (stereo not drawn)
  Kd: > 4 mM (inactive)

## CC(=O)Nc1c(C#N)c(C(C)(C)C)cn1C
  Kd: > 4 mM (inactive)

## CCC(CCC(C)[C@H]1CCC2C3CC=C4C[C@@H](O)CC[C@]4(C)C3CC[C@@]21C)C(C)C (stereo partly drawn)
  Kd: > 4 mM (inactive)

## COc1c(-c2coc3cc4c(cc3c2=O)CC(OC(C)=O)C(C)(C)O4)ccc2c1C=CC(C)(C)O2 (stereo not drawn)
  Kd: > 4 mM (inactive)

## NC(=O)CC[C@H](N)C(=O)O
  Kd: > 4 mM (inactive)

## COc1ccc(Cl)c(S(=O)(=O)N2CCCC2)c1
  Kd: > 4 mM (inactive)

## Cc1ccc(C)n1NC(=O)c1cccs1
  Kd: > 4 mM (inactive)

## O=C1Nc2ccc(S(=O)(=O)NCCO)c3cccc1c23
  Kd: > 4 mM (inactive)

## O=C(Nc1nncs1)c1c(F)c(F)c(F)c(F)c1F
  Kd: > 4 mM (inactive)

## Oc1ccccc1-c1cc(C(F)(F)F)[nH]n1
  Kd: > 4 mM (inactive)

## COc1c2c(cc3c1OCO3)CCN(C)C2
  Kd: > 4 mM (inactive)

## CNC(=O)Nc1ccc(C(=O)NC)cc1
  Kd: > 4 mM (inactive)

## CCOC(=O)c1c(C)cc(O)c(C=O)c1O
  Kd: > 4 mM (inactive)

## NC12CC3CC(C1)CC(O)(C3)C2
  Kd: > 4 mM (inactive)

## O=C(Nc1cccc2ncccc12)c1cccnc1
  Kd: > 4 mM (inactive)

## O=C1NCCCC1C(=O)N/N=C/c1ccccc1 (stereo not drawn)
  Kd: > 4 mM (inactive)

## NCCc1ccc(S(N)(=O)=O)cc1
  Kd: > 4 mM (inactive)

## Nc1ccc2sccc2c1
  Kd: > 4 mM (inactive)

## CC(=O)c1ccc(NC(=O)c2ocnc2C)cc1
  Kd: > 4 mM (inactive)

## Cc1cc(C(=O)NCc2cccs2)cs1
  Kd: > 4 mM (inactive)

## C(=Nn1cnnc1)c1ccccc1
  Kd: > 4 mM (inactive)

## Cc1c(C(=O)Nc2cnccn2)oc2ccccc12
  Kd: > 4 mM (inactive)

## O=C(O)CNC(=O)c1ccccc1
  Kd: > 4 mM (inactive)

## COc1cc(OC)c2c(=O)c(-c3ccc4c(c3)OCO4)coc2c1
  Kd: > 4 mM (inactive)

## NC(=O)c1ccc(SCC(=O)O)c([N+](=O)[O-])c1
  Kd: > 4 mM (inactive)

## COc1cc(C)c(S(=O)(=O)N2CCN(C)CC2)cc1C
  Kd: > 4 mM (inactive)

## COCC(=O)NC1CC(C)(C)NC(C)(C)C1
  Kd: > 4 mM (inactive)

## Cc1nnc(SCC(=O)Nc2ccccc2)[nH]c1=O
  Kd: > 4 mM (inactive)

## CN1CCC(=NNC(=O)c2ccco2)CC1
  Kd: > 4 mM (inactive)

## Cc1cc(C(=O)N2CCN(c3ccccn3)CC2)c(C)o1
  Kd: > 4 mM (inactive)

## O=C1CN(C(=O)CN2CCOCC2)c2ccccc2N1
  Kd: > 4 mM (inactive)

## O=C1CCC(=O)N1CNc1ccccc1
  Kd: > 4 mM (inactive)

## Cc1ccc(N2C(=O)CC(=O)NC2=O)cc1
  Kd: > 4 mM (inactive)

## COc1ccc(S(=O)(=O)N2CCOCC2)cc1C(C)C
  Kd: > 4 mM (inactive)

## CC(O)C(=O)N/N=C/c1cccs1 (stereo not drawn)
  Kd: > 4 mM (inactive)

## CC(=O)N1CCc2ccccc2C1CC(=O)O (stereo not drawn)
  Kd: > 4 mM (inactive)

## N/C(=N/S(=O)(=O)c1cccs1)c1ccccc1
  Kd: > 4 mM (inactive)

## NC(=O)Cn1nnc(-c2ccc(C(F)(F)F)cc2)n1
  Kd: > 4 mM (inactive)

## Cc1ccc(C(=O)Nn2cnnc2)s1
  Kd: > 4 mM (inactive)

## CC(=O)Nc1ccn(Cc2c(F)cccc2Cl)n1
  Kd: > 4 mM (inactive)

## Nc1nnc(SCc2cccnc2)s1
  Kd: > 4 mM (inactive)

## O=C(O[C@@H]1Cc2c(O)cc(O)cc2O[C@@H]1c1cc(O)c(O)c(O)c1)c1cc(O)c(O)c(O)c1
  Kd: > 4 mM (inactive)

## Cc1c(/C=N/O)cnn1C
  Kd: > 4 mM (inactive)

## O=C1c2ccccc2C(=O)N1/N=C/c1ccc[nH]1
  Kd: > 4 mM (inactive)

## CCNC(CC(=O)Nc1ccc(O)cc1)C(=O)O (stereo not drawn)
  Kd: > 4 mM (inactive)

## CCOc1ccc(Cl)cc1S(=O)(=O)N1CCCC1
  Kd: > 4 mM (inactive)

## COC1C(O)C(O[C@H]2CC[C@]3(C=O)C4C(CC[C@]3(O)C2)[C@@]2(O)CC[C@H](C3=CC(=O)OC3)[C@@]2(C)C[C@H]4OC(C)=O)OC(C)C1OC(C)=O (stereo partly drawn)
  Kd: > 4 mM (inactive)

## c1ccc2c(c1)CN1CCCC1=N2
  Kd: > 4 mM (inactive)

## NC(=O)c1ccsc1NC(=O)c1cccnc1
  Kd: > 4 mM (inactive)

## N#Cc1ccccc1CSc1ccccn1
  Kd: > 4 mM (inactive)

## CS(C)=C1C(=O)NC(=O)N(c2ccccc2)C1=O
  Kd: > 4 mM (inactive)

## Cc1ccc(CO)o1
  Kd: > 4 mM (inactive)

## c1ccc(-n2ncc3c(NCc4ccco4)ncnc32)cc1
  Kd: > 4 mM (inactive)

## O=C(Nc1ccncc1)c1cncc(Br)c1
  Kd: > 4 mM (inactive)

## O=C1C2C3CCC(O3)C2C(=O)N1c1ccccc1 (stereo not drawn)
  Kd: > 4 mM (inactive)
